≈ marks a conversion by molar mass, not a printed value.

Experimental findings from US8604059B2, “Thioxanthene derivatives for the treatment of infectious diseases” (BKG Pharma APS, priority 2009, dated 2013) are described below.

What all share (format): cell-based
One data set relates to E. coli. In words: MIC, microdilution broth, multiresistant clinical isolates (Table 1A). As to conditions: Escherichia coli; ten multiresistant clinical isolates; read-out: Median MIC E. coli. How it is done:
(§1) Cell growth was tested using the Minimal Inhibitory Concentration (MIC) susceptibility tests by use of the microdilution broth method in accordance to the NCCLS Guidelines (NCCLS Guidelines, Methods for Dilution Antimicrobial Susceptibility Tests for Bacteria That Grow Aerobically; Approved Standard, Sixth Edition, Volume 23; Number 2). The minimum inhibitory concentration (MIC), is defined as the lowest concentration of drug which inhibits growth of the test organism, in the sense that no visible growth is detected (total inhibition of growth). In example 2, MIC of the compounds used on fungal microorgansims was determined from the IC90 measurements according to NCCLS Guidelines.
(§2) A log phase culture of bacteria was diluted with fresh pre-warmed Mueller-Hinton medium and adjusted to a defined OD at 600 nm in order to give a final concentration of 1×10^4-5 bacteria/ml medium. The bacterial culture was transferred to microtiter-plates and culture was added to each well. […] Trays were incubated at 37° C. by shaking in a robot analyzer, PowerWavex, software KC^4′ Kebo. Lab, Copenhagen, for 16 h and optical densities were measured at 600 nm during the incubation time in order to record growth curves. Wells containing bacterial culture without drug were used as controls to ensure correct inoculum size and bacterial growth during the incubation. Cultures were tested in order to detect contaminations. Each experiment was repeated in triplicate.
(§3) Ten strains in each test group.
Background: Dilution methods test growth across graded concentrations, often in twofold steps.

The next data set relates to S. epidermidis. Described as above. As to conditions: Staphylococcus epidermidis; ten multiresistant clinical isolates; read-out: Median MIC S. epidermidis. How it is done: as §1, §2, §3
For another data set, the system named is E. faecalis. The description is as above. As to conditions: Enterococcus faecalis; ten multiresistant clinical isolates; read-out: Median MIC E. faecalis. The procedure: as §1, §2, §3
The subject of another data set is S. aureus. The description is as above. As to conditions: Staphylococcus aureus; ten multiresistant clinical isolates; read-out: Median MIC S. aureus. The procedure: as §1, §2, §3
The subject of another data set is E. faecium. The description is as above. As to conditions: Enterococcus faecium; ten multiresistant clinical isolates; read-out: Median MIC E. faecium. How it is done: as §1, §2, §3
Another data set relates to MT4 cells. In words: Cytotoxic effect in uninfected MT4 cultures. As to conditions: at the concentrations used. How it is done: (§4) Compounds were examined for possible antiviral activity against strain IIIB of HIV-1 using MT4 cells as target cells. MT4 cells were incubated with virus (0.005 MOI) and growth medium containing the test dilutions of compound(s) for six days in parallel with virus-infected and uninfected control cultures without compound added. Expression of HIV in the cultures was indirectly quantified using the MTT assay as previously described. Compounds mediating less than 30% reduction of HIV expression were considered without biological activity. Compounds were tested in parallel for cytotoxic effect in uninfected MT4 cultures containing the test dilutions of compound as described above. Cultures for test of both antiviral activity and cytotoxic effect were set up in tripleduplicates, […] per culture in micro titre plates. A 30% inhibition of cell growth relative to control cultures was considered significant. The 50% inhibitory concentration was determined by interpolation from the plots of percent inhibition versus concentration of compound.
(§5) CC50 is defined as the inhibitory concentration that reduces cellular growth or viability of uninfected cells by 50%.

A short description of data set [1]: Cytotoxic effect in uninfected MT4 cultures. As to conditions: human, uninfected MT4 cells; single agent; uninfected MT4. The procedure:
as §4, §5

In the case of `Clc1ccc2c(c1)/C(=C/CCC1CCNCC1)c1ccccc1S2` [Compound 3], the MIC in the data set with E. coli was found to be 3 µg/mL (≈ 8.43 µM); with S. epidermidis, 1 µg/mL (≈ 2.81 µM); in the data set on E. faecalis, 0.1 µg/mL (≈ 0.281 µM); in the data set on S. aureus it was 2 µg/mL (≈ 5.62 µM); with E. faecium it was 0.1 µg/mL (≈ 0.281 µM). The “Cytotoxic effect alone” value in the data set on MT4 cells is “no antiviral or cytotoxic effect”. The CC50 at 6 days in data set [1] is greater than 4 µM.

What is called MIC is the smallest concentration in the dilution series that meets the test's criterion for growth inhibition. As a reminder, the CC50 is the concentration giving 50% cytotoxicity. A high value points to lower toxicity to the cells.
